Data as given in PubChem BioAssay AID330 (DTP/NCI, 2004).
“And” between values parts separate entries of the source, which are not always exact repeats. Identical values can stand only once. Toxic doses and inconclusive results are not listed. Peptide text beside a SMILES is read from it.

Tested on: P388 leukemia ip, CD2F1 mice, survival T/C
Assay: NCI In Vivo Anticancer Drug Screen. Data for tumor model P388 Leukemia (intraperitoneal) in CD2F1 (CDF1) mice
Details: endpoint: median survival time, higher = longer survival
Method in brief: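 Mice carrying the transplanted tumor received test compound or vehicle. Survival was recorded in each group, and the value is the treated-group measurement divided by that of the vehicle-treated control group.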

[1] = dose: 50.0 mg/kg/injection, schedule: Q01DX009 (ip), vehicle: saline
[2] = dose: 100.0 mg/kg/injection, schedule: Q01DX009 (ip), vehicle: saline with Tween-80
[3] = dose: 200.0 mg/kg/injection, schedule: Q01DX009 (ip), vehicle: saline with Tween-80
[4] = dose: 60.0 mg/kg/injection, schedule: Q01DX005 (ip), vehicle: Klucel (hydroxypropylcellulose) (HPC)
[5] = dose: 120.0 mg/kg/injection, schedule: Q01DX005 (ip), vehicle: Klucel (hydroxypropylcellulose) (HPC)
[6] = dose: 6.25 mg/kg/injection, schedule: Q01DX009 (ip), vehicle: saline
[7] = dose: 12.5 mg/kg/injection, schedule: Q01DX009 (ip), vehicle: saline
[8] = dose: 25.0 mg/kg/injection, schedule: Q01DX009 (ip), vehicle: saline
[9] = dose: 60.0 mg/kg/injection, schedule: Q01DX005 (ip), vehicle: saline with Tween-80
[10] = dose: 100.0 mg/kg/injection, schedule: Q01DX009 (ip), vehicle: saline

## CC(C)NCCO
[1]
  T/C: 100 % of control
dose: 50.0 mg/kg/injection, schedule: Q04DX003 (ip), vehicle: saline
  T/C: 100 % of control
dose: 100.0 mg/kg/injection, schedule: Q04DX003 (ip), vehicle: saline
  T/C: 109 % of control
dose: 200.0 mg/kg/injection, schedule: Q04DX003 (ip), vehicle: saline
  T/C: 109 % of control

## CCCCCCC(=O)NC1=C(N2CC2)C(=O)C(NC(=O)CCCCCC)=C(N2CC2)C1=O
dose: 12.5 mg/kg/injection, schedule: Q04DX003 (ip), vehicle: saline with Tween-80
  T/C: 100 % of control
dose: 25.0 mg/kg/injection, schedule: Q04DX003 (ip), vehicle: saline with Tween-80
  T/C: 109 % of control
[2]
  T/C: 245 % of control
dose: 100.0 mg/kg/injection, schedule: Q04DX003 (ip), vehicle: saline with Tween-80
  T/C: 159 % of control
dose: 150.0 mg/kg/injection, schedule: Q04DX003 (ip), vehicle: saline with Tween-80
  T/C: 195 % of control
[3]
  T/C: 120 % of control

## CN1CCC(c2ccccc2)=C(Br)C1
dose: 60.0 mg/kg/injection, schedule: Q01DX005 (ip), vehicle: saline
  T/C: 102 % of control
dose: 120.0 mg/kg/injection, schedule: Q01DX005 (ip), vehicle: saline
  T/C: 98 % of control

## COC(=O)C1C(OS(=O)(=O)O)CCC2CN3CCc4c([nH]c5ccccc45)C3CC21 (centres undefined)
[4]
  T/C: 102 % of control
[5]
  T/C: 105 % of control
dose: 240.0 mg/kg/injection, schedule: Q01DX005 (ip), vehicle: Klucel (hydroxypropylcellulose) (HPC)
  T/C: 103 % of control

## O=C(C[n+]1ccccc1)N/N=C/c1ccc([N+](=O)[O-])s1
dose: 6.25 mg/kg/injection, schedule: Q01DX009 (ip), vehicle: saline with Tween-80
  T/C: 100 % of control
[6]
  T/C: 104 % of control
dose: 12.5 mg/kg/injection, schedule: Q01DX009 (ip), vehicle: saline with Tween-80
  T/C: 96 % of control
[7]
  T/C: 100 % of control
dose: 25.0 mg/kg/injection, schedule: Q01DX009 (ip), vehicle: saline with Tween-80
  T/C: 116 % of control
[8]
  T/C: 100 % of control

## COC1=C(Br)C(=O)N/C1=C(\OC)c1ccccc1
[9]
  T/C: 89 % of control
dose: 120.0 mg/kg/injection, schedule: Q01DX005 (ip), vehicle: saline with Tween-80
  T/C: 98 % of control
dose: 240.0 mg/kg/injection, schedule: Q01DX005 (ip), vehicle: saline with Tween-80
  T/C: 89 % of control

## COc1cccc2c1C(=O)C1=C(C2=O)c2c(O)cc(CO)cc2C(O)C1O (centres undefined)
dose: 6.25 mg/kg/injection, schedule: Q01DX005 (ip), vehicle: saline + Tween-80 + alcohol
  T/C: 113 % of control
dose: 12.5 mg/kg/injection, schedule: Q01DX005 (ip), vehicle: saline + Tween-80 + alcohol
  T/C: 113 % of control
dose: 25.0 mg/kg/injection, schedule: Q01DX005 (ip), vehicle: saline + Tween-80 + alcohol
  T/C: 120 % of control

## Nc1ncc[nH]c1=O
[1]
  T/C: 100 % of control
[10]
  T/C: 97 % of control

## COC(=O)c1nc(N)nc(C(=O)OC)c1C(=O)c1cccnc1
[4]
  T/C: 95 % of control
[5]
  T/C: 93 % of control

## Cc1cc2c(c3c1C(=O)CC3)C(C)(C)CCC2(C)C
dose: 50.0 mg/kg/injection, schedule: Q01DX005 (ip), vehicle: saline with Tween-80
  T/C: 99 % of control
dose: 100.0 mg/kg/injection, schedule: Q01DX005 (ip), vehicle: saline with Tween-80
  T/C: 97 % of control
dose: 200.0 mg/kg/injection, schedule: Q01DX005 (ip), vehicle: saline with Tween-80
  T/C: 95 % of control

## N#CNC(=Nc1ccccc1)[N](C#N)[Sn]([c]1ccccc1)([c]1ccccc1)[c]1ccccc1
dose: 1.56 mg/kg/injection, schedule: Q01DX005 (ip), vehicle: Klucel (hydroxypropylcellulose) (HPC)
  T/C: 100 % of control
dose: 3.12 mg/kg/injection, schedule: Q01DX005 (ip), vehicle: Klucel (hydroxypropylcellulose) (HPC)
  T/C: 102 % of control
dose: 6.25 mg/kg/injection, schedule: Q01DX005 (ip), vehicle: Klucel (hydroxypropylcellulose) (HPC)
  T/C: 103 % of control and 97 % of control

## CCCCOc1ccc2nc(C)cc(N/N=C/c3ccc(OC)c4ccccc34)c2c1
dose: 12.5 mg/kg/injection, schedule: Q01DX005 (ip), vehicle: Klucel (hydroxypropylcellulose) (HPC)
  T/C: 94 % of control
dose: 25.0 mg/kg/injection, schedule: Q01DX005 (ip), vehicle: Klucel (hydroxypropylcellulose) (HPC)
  T/C: 94 % of control
dose: 50.0 mg/kg/injection, schedule: Q01DX005 (ip), vehicle: Klucel (hydroxypropylcellulose) (HPC)
  T/C: 89 % of control and 97 % of control

## O=C(O)C[n+]1ccccc1
[6]
  T/C: 103 % of control
[7]
  T/C: 101 % of control and 94 % of control
[8]
  T/C: 105 % of control
[1]
  T/C: 101 % of control
[10]
  T/C: 97 % of control

## CC(C)CC(NC(=O)C(CC(=O)O)NC(=O)C(N)CO)C(=O)N1CCCC1C(=O)NC(CCC(N)=O)C(=O)NC(C(=O)O)C(C)O (centres undefined) (H-SDLPQT-OH; configuration not given here)
dose: 9.0 mg/kg/injection, schedule: Q01DX005 (ip), vehicle: water
  T/C: 110 % of control
dose: 18.0 mg/kg/injection, schedule: Q01DX005 (ip), vehicle: water
  T/C: 107 % of control
dose: 36.0 mg/kg/injection, schedule: Q01DX005 (ip), vehicle: water
  T/C: 107 % of control
dose: 72.0 mg/kg/injection, schedule: Q01DX005 (ip), vehicle: water
  T/C: 107 % of control
dose: 144.0 mg/kg/injection, schedule: Q01DX005 (ip), vehicle: water
  T/C: 100 % of control

## CC(=O)c1sc(SSc2sc(C(C)=O)c(C)c2[N+](=O)[O-])c([N+](=O)[O-])c1C
dose: 100.0 mg/kg/injection, schedule: Q04DX002 (ip), vehicle: Klucel (hydroxypropylcellulose) (HPC)
  T/C: 91 % of control
dose: 200.0 mg/kg/injection, schedule: Q04DX002 (ip), vehicle: Klucel (hydroxypropylcellulose) (HPC)
  T/C: 89 % of control
dose: 400.0 mg/kg/injection, schedule: Q04DX002 (ip), vehicle: Klucel (hydroxypropylcellulose) (HPC)
  T/C: 86 % of control

## COc1cccc2c1C(=N)c1c(O)c3c(c(O)c1C2=O)C[C@@](O)(C(C)=O)C[C@@H]3OC1CC(N)C(O)C(C)O1 (some centres undefined)
dose: 0.5 mg/kg/injection, schedule: Q01DX009 (ip), vehicle: water
  T/C: 153 % of control
dose: 0.75 mg/kg/injection, schedule: Q04DX003 (ip), vehicle: water
  T/C: 112 % of control
dose: 1.0 mg/kg/injection, schedule: Q01DX009 (ip), vehicle: saline
  T/C: 158 % of control
dose: 1.0 mg/kg/injection, schedule: Q01DX009 (ip), vehicle: water
  T/C: 153 % of control and 175 % of control
dose: 1.5 mg/kg/injection, schedule: Q04DX003 (ip), vehicle: water
  T/C: 118 % of control
dose: 2.0 mg/kg/injection, schedule: Q01DX009 (ip), vehicle: saline
  T/C: 153 % of control
dose: 2.0 mg/kg/injection, schedule: Q01DX009 (ip), vehicle: water
  T/C: 155 % of control and 186 % of control
dose: 3.0 mg/kg/injection, schedule: Q04DX003 (ip), vehicle: water
  T/C: 124 % of control
dose: 3.24 mg/kg/injection, schedule: Q04DX003 (ip), vehicle: water
  T/C: 150 % of control
dose: 4.0 mg/kg/injection, schedule: Q01DX009 (ip), vehicle: water
  T/C: 150 % of control and 157 % of control
dose: 5.4 mg/kg/injection, schedule: Q04DX003 (ip), vehicle: water
  T/C: 161 % of control
dose: 6.0 mg/kg/injection, schedule: Q04DX003 (ip), vehicle: water
  T/C: 123 % of control and 124 % of control
dose: 8.0 mg/kg/injection, schedule: Q01DX009 (ip), vehicle: saline
  T/C: 91 % of control
dose: 8.0 mg/kg/injection, schedule: Q01DX009 (ip), vehicle: water
  T/C: 88 % of control and 94 % of control
dose: 9.0 mg/kg/injection, schedule: Q04DX003 (ip), vehicle: water
  T/C: 157 % of control
dose: 12.0 mg/kg/injection, schedule: Q04DX003 (ip), vehicle: water
  T/C: 102 % of control
dose: 15.0 mg/kg/injection, schedule: Q04DX003 (ip), vehicle: water
  T/C: 98 % of control
dose: 24.0 mg/kg/injection, schedule: Q04DX003 (ip), vehicle: water
  T/C: 123 % of control
dose: 48.0 mg/kg/injection, schedule: Q04DX003 (ip), vehicle: water
  T/C: 116 % of control
dose: 96.0 mg/kg/injection, schedule: Q04DX003 (ip), vehicle: water
  T/C: 98 % of control

## O=[N+]([O-])c1cc(Cl)c(Cl)cc1Cl
dose: 50.0 mg/kg/injection, schedule: Q01DX009 (ip), vehicle: saline with Tween-80
  T/C: 109 % of control
[2]
  T/C: 100 % of control
[3]
  T/C: 104 % of control

## O=C(OCCOc1ccc(C(F)(F)F)cc1[N+](=O)[O-])c1ccc(Cl)cc1Cl
dose: 15.0 mg/kg/injection, schedule: Q01DX005 (ip), vehicle: saline with Tween-80
  T/C: 90 % of control
dose: 30.0 mg/kg/injection, schedule: Q01DX005 (ip), vehicle: saline with Tween-80
  T/C: 91 % of control
[9]
  T/C: 88 % of control
